Data on 25 compounds can be found in US8399681B2, “Substituted aminothiazolone indazoles as estrogen related receptor-alpha modulators” (Janssen Pharmaceutica NV, priority 2009, dated 2013).

The test concerns the target T1, ERR1 (also known as ERR-α or ERR-1) (Homo sapiens, UniProt P11474).
T1 sequence (P11474 193-421 limits assumed): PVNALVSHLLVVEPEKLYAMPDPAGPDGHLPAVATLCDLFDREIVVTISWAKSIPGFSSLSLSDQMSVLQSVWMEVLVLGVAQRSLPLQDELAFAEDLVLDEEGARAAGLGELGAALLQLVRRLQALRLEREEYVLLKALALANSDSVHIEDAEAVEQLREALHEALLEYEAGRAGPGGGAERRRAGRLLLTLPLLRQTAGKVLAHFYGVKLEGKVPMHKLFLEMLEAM
Nature of the test: TR-FRET assay (disruption of co-activator peptide binding). Format: biochemical. The conditions noted are these: 6His-tagged ERR1 LBD, GST-hSRC2 co-activator polypeptide; average of 3 independent experiments. An outline of the steps: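 His6-ERR1 LBD (6 nM) with GST-SRC-2 peptide (6 nM), anti-GST Eu cryptate (30 nM) and anti-His XL665 (7.5 nM) in Tris pH 8/KCl/DTT/BSA buffer, equilibrated 4-18 h at 25 °C. Ex 340, em 615/665 nm; hyperbolic dose-response fit, mean of 3 experiments.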
Background: In TR-FRET formats the signal depends on donor and acceptor labels being close together.

The EC50 is the concentration at which the effect is half-maximal. A high value points to a less potent agent. Compound `O=C1N=C(N2CCC(C(=O)NS(=O)(=O)N3CCCC3)CC2)S/C1=C\c1ccc2c(cnn2Cc2ccc(C(F)(F)F)cc2C(F)(F)F)c1` [Example 173, Pyrrolidine-1-sulfonic acid (1-{5-[1-(2,4-bis-trifluoromethyl-benzyl)-1H-indazol-5-ylmethylene]-4-oxo-4,5-dihydro-thiazol-2-yl}-piperidine-4-carbonyl)-amide] gave an EC50 of 71 nM.
Under `O=C1N=C(N2CCC(C(=O)NS(=O)(=O)N3CCCC3)CC2)S/C1=C\c1ccc2c(cnn2Cc2ccc(Cl)cc2C(F)(F)F)c1` [Example 174, Pyrrolidine-1-sulfonic acid (1-{5-[1-(4-chloro-2-trifluoromethyl-benzyl)-1H-indazol-5-ylmethylene]-4-oxo-4,5-dihydro-thiazol-2-yl}-piperidine-4-carbonyl)-amide] stands 58.1 nM; under `O=C1N=C(N2CCO[C@H](CO)C2)S/C1=C\c1ccc2c(c1)c(I)nn2Cc1ccc(C(F)(F)F)cc1C(F)(F)F` [Example 175, 5-[1-(2,4-Bis-trifluoromethyl-benzyl)-3-iodo-1H-indazol-5-ylmethylene]-2(S)-(2-hydroxymethyl-morpholin-4-yl)-thiazol-4-one], 5 nM; under `O=C1N=C(N2CCC(C(=O)O)CC2)S/C1=C\c1ccc2c(cnn2Cc2ccc(F)cc2C(F)(F)F)c1` [Example 176, 1-{5-[1-(4-Fluoro-2-trifluoromethyl-benzyl)-1H-indazol-5-ylmethylene]-4-oxo-4,5-dihydro-thiazol-2-yl}-piperidine-4-carboxylic acid], 139 nM.
The result for `O=C1N=C(N2CCO[C@H](CO)C2)S/C1=C\c1ccc2c(cnn2Cc2ccc(F)cc2C(F)(F)F)c1` [Example 177, 5-[1-(4-Fluoro-2-trifluoromethyl-benzyl)-1H-indazol-5-ylmethylene]-2-((2S)-2-hydroxymethyl-morpholin-4-yl)-thiazol-4-one] reads 55 nM; that for `O=C1N=C(N2CCN[C@@H](CO)C2)S/C1=C\c1ccc2c(cnn2Cc2ccc(F)cc2C(F)(F)F)c1` [Example 178, 5-[1-(4-Fluoro-2-trifluoromethyl-benzyl)-1H-indazol-5-ylmethylene]-2-((3R)-3-hydroxymethyl-piperazin-1-yl)-thiazol-4-one], 52 nM; that for `O=C1N=C(N2CCNC3(CC3)C2)S/C1=C\c1ccc2c(cnn2Cc2ccc(C(F)(F)F)cc2C(F)(F)F)c1` [Example 179, 5-[1-(2,4-Bis-trifluoromethyl-benzyl)-1H-indazol-5-ylmethylene]-2-(4,7-diaza-spiro[2.5]oct-7-yl)-thiazol-4-one], 17 nM.
Consider `Cc1nn(Cc2ccc(C(F)(F)F)cc2C(F)(F)F)c2ccc(/C=C3\SC(N4CCO[C@H](CO)C4)=NC3=O)cc12` [Example 180, 5-[1-(2,4-Bis-trifluoromethyl-benzyl)-3-methyl-1H-indazol-5-ylmethylene]-2-(2-(S)-hydroxymethyl-morpholin-4-yl)-thiazol-4-one], for which the response was half-maximal at 21 nM (EC50).
The result for `Cc1nn(Cc2ccc(Cl)cc2C(F)(F)F)c2ccc(/C=C3\SC(N4CCO[C@H](CO)C4)=NC3=O)cc12` [Example 181, 5-[1-(4-Chloro-2-trifluoromethyl-benzyl)-3-methyl-1H-indazol-5-ylmethylene]-2-(2-(S)-hydroxymethyl-morpholin-4-yl)-thiazol-4-one] reads 16 nM; that for `Cc1nn(Cc2ccc(C(F)(F)F)cc2C(F)(F)F)c2ccc(/C=C3\SC(N4CCN[C@@H](CO)C4)=NC3=O)cc12` [Example 182, 5-[1-(2,4-Bis-trifluoromethyl-benzyl)-3-methyl-1H-indazol-5-ylmethylene]-2-(3-(R)-hydroxymethyl-piperazin-1-yl)-thiazol-4-one], 10.8 nM.
The result for `Cc1nn(Cc2ccc(Cl)cc2C(F)(F)F)c2ccc(/C=C3\SC(N4CCN[C@@H](CO)C4)=NC3=O)cc12` [Example 183, 5-[1-(4-Chloro-2-trifluoromethyl-benzyl)-3-methyl-1H-indazol-5-ylmethylene]-2-(3-(R)-hydroxymethyl-piperazin-1-yl)-thiazol-4-one] reads 4.9 nM; that for `O=C1N=C(N2CCO[C@H](CO)C2)S/C1=C\c1ccc2c(c1)c(Cl)nn2Cc1ccc(C(F)(F)F)cc1C(F)(F)F` [Example 184, 5-[1-(2,4-Bis-trifluoromethyl-benzyl)-3-chloro-1H-indazol-5-ylmethylene]-2-(2-(S)-hydroxymethyl-morpholin-4-yl)-thiazol-4-one], 3 nM; that for `O=C1N=C(N2CCO[C@H](CO)C2)S/C1=C\c1ccc2c(c1)c(Cl)nn2Cc1ccc(Cl)cc1C(F)(F)F` [Example 185, 5-[3-Chloro-1-(4-chloro-2-trifluoromethyl-benzyl)-1H-indazol-5-ylmethylene]-2-(2-(S)-hydroxymethyl-morpholin-4-yl)-thiazol-4-one], 3 nM.
The result for `O=C1N=C(N2CCN[C@@H](CO)C2)S/C1=C\c1ccc2c(c1)c(Cl)nn2Cc1ccc(Cl)cc1C(F)(F)F` [Example 187, 5-[3-Chloro-1-(4-chloro-2-trifluoromethyl-benzyl)-1H-indazol-5-ylmethylene]-2-(3-(R)-hydroxymethyl-piperazin-1-yl)-thiazol-4-one] reads 12.7 nM.
For `O=C1N=C(N2C[C@@H](F)C[C@H]2C(=O)O)S/C1=C\c1ccc2c(cnn2Cc2ccc(Cl)cc2C(F)(F)F)c1` [Example 189, 1-[5-({1-[4-Chloro-2-(trifluoromethyl)benzyl]-1H-indazol-5-yl}methylidene)-4-oxo-4,5-dihydro-1,3-thiazol-2-yl]-4-(S)-fluoro-L-proline], the concentration for a half-maximal effect (EC50) amounted to 24 nM.
Under `COC(=O)C1CCN(C2=NC(=O)/C(=C/c3ccc4c(cnn4Cc4ccc(C(F)(F)F)cc4C(F)(F)F)c3)S2)CC1` [Example 190, Methyl 1-[5-({1-[2,4-bis(trifluoromethyl)benzyl]-1H-indazol-5-yl}methylidene)-4-oxo-4,5-dihydro-1,3-thiazol-2-yl]piperidine-4-carboxylate] stands 53 nM; under `O=C1N=C(N2CCC(C(=O)O)CC2)S/C1=C\c1ccc2c(c1)c(I)nn2Cc1ccc(C(F)(F)F)cc1C(F)(F)F` [Example 191, 1-[5-({1-[2,4-Bis(trifluoromethyl)benzyl]-3-iodo-1H-indazol-5-yl}methylidene)-4-oxo-4,5-dihydro-1,3-thiazol-2-yl]piperidine-4-carboxylic acid], 3.6 nM.
Under `C[C@@H]1CN(C)CCN1C1=NC(=O)/C(=C/c2ccc3c(cnn3Cc3ccc(C(F)(F)F)cc3C(F)(F)F)c2)S1` [Example 192, 5-({1-[2,4-Bis(trifluoromethyl)benzyl]-1H-indazol-5-yl}methylidene)-2-(2-(R),4-dimethylpiperazin-1-yl)-1,3-thiazol-4(5H)-one] stands 16 nM.
Consider `C[C@@H]1CN(C)CCN1C1=NC(=O)/C(=C/c2ccc3c(cnn3Cc3ccc(Cl)cc3C(F)(F)F)c2)S1` [Example 193, 5-({1-[4-Chloro-2-(trifluoromethyl)benzyl]-1H-indazol-5-yl}methylidene)-2-(2-(R),4-dimethylpiperazin-1-yl)-1,3-thiazol-4(5H)-one], for which the response was half-maximal at 11 nM (EC50).
Under `O=C1N=C(N2CCOC[C@@H]2C(=O)O)S/C1=C\c1ccc2c(cnn2Cc2ccc(Cl)cc2C(F)(F)F)c1` [Example 194, 4-[5-({1-[4-Chloro-2-(trifluoromethyl)benzyl]-1H-indazol-5-yl}methylidene)-4-oxo-4,5-dihydro-1,3-thiazol-2-yl]morpholine-3-(R)-carboxylic acid] stands 23.5 nM; under `CN1CCN(C2=NC(=O)/C(=C/c3ccc4c(cnn4Cc4ccc(C(F)(F)F)cc4C(F)(F)F)c3)S2)C[C@@H]1CO` [Example 195, 5-({1-[2,4-Bis(trifluoromethyl)benzyl]-1H-indazol-5-yl}methylidene)-2-[3-(R)-(hydroxymethyl)-4-methylpiperazin-1-yl]-1,3-thiazol-4(5H)-one], 20 nM; under `CN1CCN(C2=NC(=O)/C(=C/c3ccc4c(cnn4Cc4ccc(Cl)cc4C(F)(F)F)c3)S2)C[C@@H]1CO` [Example 196, 5-({1-[4-Chloro-2-(trifluoromethyl)benzyl]-1H-indazol-5-yl}methylidene)-2-[3-(R)-(hydroxymethyl)-4-methylpiperazin-1-yl]-1,3-thiazol-4(5H)-one], 16 nM.
The result for `COCCN1CCN(C2=NC(=O)/C(=C/c3ccc4c(cnn4Cc4ccc(Cl)cc4C(F)(F)F)c3)S2)[C@H](C)C1` [Example 199, 5-({1-[4-Chloro-2-(trifluoromethyl)benzyl]-1H-indazol-5-yl}methylidene)-2-[4-(2-methoxyethyl)-2-(R)-methylpiperazin-1-yl]-1,3-thiazol-4(5H)-one] reads 11 nM; that for `O=C1N=C(N2CCN[C@H](CO)C2)S/C1=C\c1ccc2c(cnn2Cc2ccc(C(F)(F)F)cc2C(F)(F)F)c1` [Example 200, 5-({1-[2,4-Bis(trifluoromethyl)benzyl]-1H-indazol-5-yl}methylidene)-2-[3-(S)-(hydroxymethyl)piperazin-1-yl]-1,3-thiazol-4(5H)-one], 13 nM.
For the compound `NCC1CN(C2=NC(=O)/C(=C/c3ccc4c(cnn4Cc4ccc(C(F)(F)F)cc4C(F)(F)F)c3)S2)CCO1` (stereo not shown) [Example 201, 2-[2-(Aminomethyl)morpholin-4-yl]-5-({1-[2,4-bis(trifluoromethyl)benzyl]-1H-indazol-5-yl}methylidene)-1,3-thiazol-4(5H)-one], a half-maximal effect (EC50) was put at 47 nM. This EC50 is about 3.6-fold higher than that of the compound before.
